# From PubChem BioAssay AID1919002 (Molecular Pharmacology Branch, DTP, NCI, 2023)
# pIC50: −log10 of the molar value. Several values for one entry are separate records, joined by “and”; a condition that tells them apart may be missing. Equal values may be shown once.
# System: 743489-274-T-PDC complex spheroid growth
# Assay: Anticancer human tumor 743489-274-T-PDC patient-derived renal cell carcinoma cell line growth inhibition [AhR]
# Conditions: for viability, T/C: stronger effect = lower value
# Excerpt: Multicellular complex tumor spheroid response to aryl hydrocarbon receptor antagonists in combination with a variety of drugs and investigational agents in selected tumor cell lines
# The current study was undertaken to assess response to aryl hydrocarbon receptor antagonists in combination with standard-of-care drugs and investigational agents in solid tumor complex spheroid models. Complex spheroids include a stromal component modeled by human endothelial cells (HUVEC) and fibroblasts modeled by human mesenchymal stem cells (MSCs). The concentration ranges selected for each drug and investigational agent were based upon clinically achievable concentrations if the clinical Cmax of the agent was known.
# Compounds. The drugs and investigational agents: BAY 2416964 (NSC825713), GNF351 (NSC835774), CH-223191 (NSC835775), CPI-455 (NSC825282), aza-TdCyd (NSC777586), decitabine (NSC127716), belinostat (NSC758774), entinostat (NSC756642), pevonedistat (NSC761192), tazemetostat (NSC777109), talazoparib (NSC765396), olaparib (NSC753686), selinexor (NSC780203), nedisertib (M3814, NSC802822), bortezomib (NSC756655), venetoclax (NSC766270), doxorubicin (NSC123127), elimusertib (BAY189344, NSC800525), ceralasertib (AZD6738, NSC777638), TAK-243 (NSC785004), alisertib (NSC759677), etoposide (NSC141540), topotecan (NSC609699), eribulin (NSC707389), gemcitabine (NSC613327), carboplatin (NSC241240), cisplatin (NSC119875), and SN-38 (NSC673596) were obtained from the National Cancer Institute (NCI) Developmental Therapeutics Program Chemical Repository (32). The FDA-approved anticancer drug set is available from the Developmental Therapeutics Program at https://dtp.cancer.gov/organization/dscb/obtaining/available plates.htm. […] The stock solutions were prepared in dimethyl sulfoxide (DMSO, Sigma-Aldrich, St. Louis, MO, cat. D2650), except for the platinum compounds which were prepared in saline (Quality Biological, Gaithersburg, MD, cat. 114-055-101), at 800-fold the tested concentration and stored at -70 degrees C prior to their use. All drugs and investigational agents were tested over a range starting from a high concentration at or near the clinical Cmax and decreasing in half-log increments. If the clinical Cmax for an agent had not been determined, the highest concentration tested was 10 microM (Table 1).
# Cell Culture. All cells were maintained in an incubator at 37 degrees C and 5% CO2 with 95% humidity. The PDC lines were cultured according to standard operating procedures established by the NCI PDMR (https://pdmr.cancer.gov). Briefly, all PDCs were thawed and cultured in Matrigel-coated flasks prepared with a working solution of 1X Ham's F-12 nutrient mix, without supplementation (Invitrogen, Waltham, MA, cat. 11765054), 100 U/mL penicillin-streptomycin (Invitrogen, cat. 15140122), and 2.5% Matrigel (Corning Inc., Corning, NY, cat. 354248) for the first three passages. All PDCs were cultured in complete DMEM/F-12 media containing advanced DMEM/F-12 (Invitrogen, cat. 12634028), 4.9% defined fetal bovine serum, heat inactivated (HyClone Laboratories Inc., Logan, UT, cat. SH30070.03HI), 389 ng/mL hydrocortisone (Sigma-Aldrich, cat. H4001), 9.7 ng/mL human EGF recombinant protein (Invitrogen, cat. PHG0313), 23.4 microg/mL adenine (Sigma-Aldrich, cat. A2786), 97.3 U/mL penicillin-streptomycin (Invitrogen, cat. 15140122), 1.9 mM L-glutamine (Invitrogen, cat. 25030081), and 9.7 microM Y-27632 dihydrochloride (Tocris Bioscience, Bristol, United Kingdom, cat. 1254). The PDCs were cultured in complete DMEM/F12 media without 10 microM Y-27632 dihydrochloride for at least two passages prior to the screen. The established cell lines NCI-H1341 and […] were cultured in DMEM/F-12, HEPES (Invitrogen, cat. 11330032), 5% defined fetal bovine serum (HyClone Laboratories Inc., cat. SH30070.03), ITS premix universal culture supplement [insulin (5 microg/mL), transferrin (5 microg/mL), and selenious acid (5 ng/mL)] […]
# [1] = curve of first compound, second compound 0.1 µM
# [2] = curve of first compound, second compound 0.316 µM
# [3] = curve of first compound, second compound 1 µM
# [4] = curve of first compound, second compound 3.16 µM
# [5] = curve of first compound, second compound 10 µM
# [6] = second compound 0.1 µM, first compound 0.0316 µM
# [7] = second compound 0.1 µM, first compound 0.1 µM
# [8] = second compound 0.1 µM, first compound 0.316 µM
# [9] = second compound 0.1 µM, first compound 1 µM
# [10] = second compound 0.1 µM, first compound 3.16 µM
# [11] = second compound 0.1 µM, first compound 10 µM
# [12] = second compound 0.316 µM, first compound 0.0316 µM
# [13] = second compound 0.316 µM, first compound 0.1 µM
# [14] = second compound 0.316 µM, first compound 0.316 µM
# [15] = second compound 0.316 µM, first compound 1 µM
# [16] = second compound 0.316 µM, first compound 3.16 µM
# [17] = second compound 0.316 µM, first compound 10 µM
# [18] = second compound 1 µM, first compound 0.0316 µM
# [19] = second compound 1 µM, first compound 0.1 µM
# [20] = second compound 1 µM, first compound 0.316 µM
# [21] = second compound 1 µM, first compound 1 µM
# [22] = second compound 1 µM, first compound 3.16 µM
# [23] = second compound 1 µM, first compound 10 µM
# [24] = second compound 3.16 µM, first compound 0.0316 µM
# [25] = second compound 3.16 µM, first compound 0.1 µM
# [26] = second compound 3.16 µM, first compound 0.316 µM
# [27] = second compound 3.16 µM, first compound 1 µM
# [28] = second compound 3.16 µM, first compound 3.16 µM
# [29] = second compound 3.16 µM, first compound 10 µM
# [30] = second compound 10 µM, first compound 0.0316 µM
# [31] = second compound 10 µM, first compound 0.1 µM
# [32] = second compound 10 µM, first compound 0.316 µM
# [33] = second compound 10 µM, first compound 1 µM
# [34] = second compound 10 µM, first compound 3.16 µM
# [35] = second compound 10 µM, first compound 10 µM
# 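Note: spheroids exposed to agents for 7 days before readout.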
# 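Throughout, for viability, T/C: 100% = DMSO vehicle control wells.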
structure (smiles),measurement,setting,value
CC1(C)CCC(CN2CCN(c3ccc(C(=O)NS(=O)(=O)c4ccc(NCC5CCOCC5)c([N+](=O)[O-])c4)c(Oc4cnc5[nH]ccc5c4)c3)CC2)=C(c2ccc(Cl)cc2)C1 + CC(CO)NC(=O)c1cc(-c2ccc(Cl)cc2)nn(-c2cnn(C)c2)c1=O,pIC50,[1],< 5.00
same,pIC50,[2],< 5.00
same,pIC50,[3],< 5.00
same,pIC50,[4],< 5.00
same,pIC50,[5],< 5.00
same,"viability, T/C",[6],96.8%
same,"viability, T/C",[7],97.4%
same,"viability, T/C",[8],90.6%
same,"viability, T/C",[9],93.7%
same,"viability, T/C",[10],106%
same,"viability, T/C",[11],96.3%
same,"viability, T/C",[12],110%
same,"viability, T/C",[13],95%
same,"viability, T/C",[14],93.1%
same,"viability, T/C",[15],89%
same,"viability, T/C",[16],90.3%
same,"viability, T/C",[17],94.8%
same,"viability, T/C",[18],92%
same,"viability, T/C",[19],88.3%
same,"viability, T/C",[20],98.1%
same,"viability, T/C",[21],86%
same,"viability, T/C",[22],91.9%
same,"viability, T/C",[23],95.8%
same,"viability, T/C",[24],89.8%
same,"viability, T/C",[25],96.3%
same,"viability, T/C",[26],107%
same,"viability, T/C",[27],95.7%
same,"viability, T/C",[28],98.9%
same,"viability, T/C",[29],93.6%
same,"viability, T/C",[30],95.4%
same,"viability, T/C",[31],112%
same,"viability, T/C",[32],93.1%
same,"viability, T/C",[33],93.9%
same,"viability, T/C",[34],95%
same,"viability, T/C",[35],104%
Nc1ccccc1NC(=O)c1ccc(CNC(=O)OCc2cccnc2)cc1,"viability, T/C",compound 0.0316 µM,95% and 98.2% (2×)
same,"viability, T/C",compound 0.1 µM,91.3% and 103% (2×)
same,"viability, T/C",compound 0.316 µM,82.6% and 96.2% and 85.1%
same,"viability, T/C",compound 1 µM,75.5% and 87.3% and 72.5%
same,"viability, T/C",compound 3.16 µM,57.6% and 59% and 59.5%
same,"viability, T/C",compound 10 µM,45.6% and 37.9% and 39.1%
same,pIC50,curve of compound,5.17 and 5.29
CC[C@@]1(O)C(=O)OCc2c1cc1n(c2=O)Cc2cc3c(CN(C)C)c(O)ccc3nc2-1 + CC(CO)NC(=O)c1cc(-c2ccc(Cl)cc2)nn(-c2cnn(C)c2)c1=O,pIC50,[1],< 7.00
same,pIC50,[2],< 7.00
same,pIC50,[3],< 7.00
same,pIC50,[4],< 7.00
same,pIC50,[5],< 7.00
same,"viability, T/C","second compound 0.1 µM, first compound 0.000316 µM",99.8%
same,"viability, T/C","second compound 0.1 µM, first compound 0.001 µM",97.9%
same,"viability, T/C","second compound 0.1 µM, first compound 0.00316 µM",91.4%
same,"viability, T/C","second compound 0.1 µM, first compound 0.01 µM",94.4%
same,"viability, T/C",[6],86.6%
same,"viability, T/C",[7],86.4%
same,"viability, T/C","second compound 0.316 µM, first compound 0.000316 µM",90.7%
same,"viability, T/C","second compound 0.316 µM, first compound 0.001 µM",96.5%
same,"viability, T/C","second compound 0.316 µM, first compound 0.00316 µM",102%
same,"viability, T/C","second compound 0.316 µM, first compound 0.01 µM",84.7%
same,"viability, T/C",[12],83.3%
same,"viability, T/C",[13],82.3%
same,"viability, T/C","second compound 1 µM, first compound 0.000316 µM",96.2%
same,"viability, T/C","second compound 1 µM, first compound 0.001 µM",98.9%
same,"viability, T/C","second compound 1 µM, first compound 0.00316 µM",95.4%
same,"viability, T/C","second compound 1 µM, first compound 0.01 µM",87%
same,"viability, T/C",[18],86.2%
same,"viability, T/C",[19],79%
same,"viability, T/C","second compound 3.16 µM, first compound 0.000316 µM",91.2%
same,"viability, T/C","second compound 3.16 µM, first compound 0.001 µM",89.9%
same,"viability, T/C","second compound 3.16 µM, first compound 0.00316 µM",92.4%
same,"viability, T/C","second compound 3.16 µM, first compound 0.01 µM",84%
same,"viability, T/C",[24],92.5%
same,"viability, T/C",[25],88.3%
same,"viability, T/C","second compound 10 µM, first compound 0.000316 µM",92.4%
same,"viability, T/C","second compound 10 µM, first compound 0.001 µM",92.7%
same,"viability, T/C","second compound 10 µM, first compound 0.00316 µM",109%
same,"viability, T/C","second compound 10 µM, first compound 0.01 µM",92.4%
same,"viability, T/C",[30],85.9%
same,"viability, T/C",[31],81.4%
COc1cc(Nc2ncc3c(n2)-c2ccc(Cl)cc2C(c2c(F)cccc2OC)=NC3)ccc1C(=O)O + Cc1ccccc1N=Nc1ccc(NC(=O)c2ccnn2C)c(C)c1,pIC50,[1],< 5.00
same,pIC50,[2],< 5.00
same,pIC50,[3],< 5.00
same,pIC50,[4],< 5.00
same,pIC50,[5],< 5.00
same,"viability, T/C",[6],93.3%
same,"viability, T/C",[7],93%
same,"viability, T/C",[8],86.6%
same,"viability, T/C",[9],87.5%
same,"viability, T/C",[10],95.4%
same,"viability, T/C",[11],79.8%
same,"viability, T/C",[12],91.4%
same,"viability, T/C",[13],88.1%
same,"viability, T/C",[14],79.9%
same,"viability, T/C",[15],77.2%
same,"viability, T/C",[16],87.1%
same,"viability, T/C",[17],90%
same,"viability, T/C",[18],93%
same,"viability, T/C",[19],98%
same,"viability, T/C",[20],75.5%
same,"viability, T/C",[21],77%
same,"viability, T/C",[22],83.4%
same,"viability, T/C",[23],81.5%
same,"viability, T/C",[24],80.4%
same,"viability, T/C",[25],94.2%
same,"viability, T/C",[26],70.5%
same,"viability, T/C",[27],78.4%
same,"viability, T/C",[28],75.2%
same,"viability, T/C",[29],82%
same,"viability, T/C",[30],76.8%
same,"viability, T/C",[31],81.2%
same,"viability, T/C",[32],76.2%
same,"viability, T/C",[33],74.3%
same,"viability, T/C",[34],65.8%
same,"viability, T/C",[35],78.7%
